Assay results from publication PMC4359373, “Mechanistic insight into the conserved allosteric regulation of periplasmic proteolysis by the signaling molecule cyclic-di-GMP” (eLife, 2014).
“And” between values parts separate entries of the source, which are not always exact repeats. Equal entries are not always repeated.

Columns and labels:
[1] = target: T1, LapD (LapD-sfGFP, full-length), with LapG (Pseudomonas fluorescens, UniProt Q3KK31); experiment: UV cross-linking of LapG-V205pAzF to LapD-sfGFP, in-gel fluorescence; assay type: binding; details: 2 μM LapD-sfGFP, 1 μM LapG, 2.5 mM CaCl2, pH 7.5, room temperature; detergent-solubilized; concentration range of sharp transition, not an EC50
T1 construct: full-length transmembrane LapD with C-terminal TEV site-sfGFP-His6, E. coli, detergent-solubilized (LMNG/CHAPS); LapG without signal peptide carrying para-azidophenylalanine at V205, sfGFP cut off; with Periplasmic cysteine protease LapG
T1 sequence (Q3KK31 1-648): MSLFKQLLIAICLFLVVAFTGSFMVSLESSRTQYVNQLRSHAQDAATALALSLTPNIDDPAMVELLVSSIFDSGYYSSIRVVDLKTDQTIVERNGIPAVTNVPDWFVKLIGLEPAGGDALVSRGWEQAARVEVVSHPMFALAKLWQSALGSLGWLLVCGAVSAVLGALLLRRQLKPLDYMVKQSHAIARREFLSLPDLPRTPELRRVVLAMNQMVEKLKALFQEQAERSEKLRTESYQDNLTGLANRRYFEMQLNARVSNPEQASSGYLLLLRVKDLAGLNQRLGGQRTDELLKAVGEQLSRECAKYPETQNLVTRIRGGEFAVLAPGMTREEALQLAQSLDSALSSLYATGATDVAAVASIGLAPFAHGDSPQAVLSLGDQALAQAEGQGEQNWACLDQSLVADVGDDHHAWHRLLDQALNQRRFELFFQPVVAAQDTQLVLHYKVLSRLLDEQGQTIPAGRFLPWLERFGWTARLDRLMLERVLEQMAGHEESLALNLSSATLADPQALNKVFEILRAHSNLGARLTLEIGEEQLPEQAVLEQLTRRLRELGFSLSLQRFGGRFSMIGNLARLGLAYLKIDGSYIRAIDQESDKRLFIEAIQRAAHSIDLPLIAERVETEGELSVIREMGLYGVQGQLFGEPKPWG
T1 sequence (Q3KK32 50-251 partner): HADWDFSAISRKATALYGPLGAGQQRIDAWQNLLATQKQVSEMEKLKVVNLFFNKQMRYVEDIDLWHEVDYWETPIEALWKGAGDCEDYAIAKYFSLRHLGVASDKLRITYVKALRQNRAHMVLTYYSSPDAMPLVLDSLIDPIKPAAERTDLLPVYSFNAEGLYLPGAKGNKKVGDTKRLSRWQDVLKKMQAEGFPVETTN

[2] = target: full-length P. fluorescens LapD fused C-terminally to superfolder GFP (LapD-sfGFP), wild type (P. fluorescens) (UniProt Q3KK31); experiment: cross-linking

Row | switch in LapG cross-linking [1] [µM] | other (LapG:LapD molar ratio) [2] | Molecule
1 | 0.75 to 1 | – | Nc1nc2c(ncn2[C@@H]2O[C@@H]3COP(=O)(O)O[C@H]4[C@@H](O)[C@H](n5cnc6c(=O)[nH]c(N)nc65)O[C@@H]4COP(=O)(O)O[C@H]3[C@H]2O)c(=O)[nH]1 [c-di-GMP]
2 | – | 0.3 and 0.5 | non-fluorescent P. fluorescens LapG with pAzF at Y206 (enzyme)
